Some results are limits rather than exact numbers.

This note sets out measurements from US11912668B2, “GCN2 and perk kinase inhibitors and methods of use thereof” (Deciphera Pharmaceuticals, LLC, priority 2020, dated 2024).

Assay [1] concerns the target GCN2 kinase (Homo sapiens (Human), UniProt Q9P2K8). Description: Biochemical assay for GCN2 (TR-FRET kinase activity assay). To be noted: 1 mM ATP, 3-hour incubation. A digest of the protocol: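 TR-FRET assay with 2 nM GCN2, 130 nM GFP-eIF2α substrate, 0.2 mg/mL E. coli tRNA and 1 mM ATP; compounds (0.5% DMSO) reacted 3 h. Stopped with 20 mM EDTA plus 2 nM Tb-anti-peIF2α (pSer52), 60 min RT; 520/490 ratio converted to % inhibition, IC50 from four-parameter fit.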
A general note: TR-FRET usually uses a lanthanide donor and a delayed reading to cut background.

The target in assay [2] is PERK kinase (Homo sapiens (Human), UniProt Q9NZJ5). Kind of assay: Biochemical assay for PERK (coupled pyruvate kinase/lactate dehydrogenase assay). To be noted: 1 mM ATP, rate from 2-3 h time frame. The gist of the method:
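Coupled pyruvate kinase/lactate dehydrogenase readout of ATP hydrolysis via NADH oxidation (A340), 10 nM PERK, 0.25 mg/mL myelin basic protein, 1 mM ATP, pH 7.5 Tris/MgCl2 buffer, 1% DMSO. Absorbance followed 6 h at 30° C; rate from the 2-3 h window, normalised to no-compound and known-inhibitor controls, IC50 fitted.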

Assay [3] relates to CCRF-CEM leukemia cells. Kind of assay: CCRF-CEM ASNase cell proliferation assay, phenotypic assay for cellular inhibition of GCN2. To be noted: Homo sapiens; ASNase treated CCRF-CEM cells, 1 mU/mL ASNase, 72 h. The assay is classed as cell-based. As to the method:
CCRF-CEM leukemia cells (catalog #CCL-116) were obtained from the American Type Culture Collect (ATTC, Manassas, VA). Cells were grown in RPMI-1640 medium supplemented with 10% heat-inactivated fetal bovine serum (Invitrogen, Carlsbad, CA) and 1% Penicillin/Streptomycin/L-Glutamine at 37° C., 5% CO2, and 95% humidity. Cells were expanded until reaching one million cells per mL at which time they are subcultured or harvested for assay use. Ten thousand cells per well in 200 μL RPMI-1640 supplemented with 10% heat-inactivated fetal bovine serum and 1% Penicillin/Streptomycin were dispensed into a 96-well black clear bottom plate. A serial dilution of test compound and 1 mU/mL ASNase was added in triplicate and plates were incubated for 72 h at 37° C., 5% CO2, and 95% humidity. At the end of the incubation, 40 μL of a […] solution of resazurin (Sigma, St. Louis, MO) in PBS was added to each well of the plate and plates were incubated for an additional 6 h at 37° C., 5% CO2, and 95% humidity. Plates were read on a Synergy2 or equivalent reader (Biotek, Winooski VT) using an excitation of 540 nm and an emission of 600 nm. Data was analyzed using GraphPad Prism software (GraphPad, San Diego, CA) to calculate IC50 values.

The subject of assay [4] is phospho-GCN2 (Thr899) in HCT116 colorectal cancer cells. Kind of assay: HCT116 amino acid starved (-AA) phospho-GCN2 assay (Western blot). To be noted: Homo sapiens, HCT-116, 4 h, read-out: HCT116-AA pGCN2 Western Blot. The assay is classed as cell-based. As to the method: (§1) HCT116 colorectal cancer cells (catalog #CCL-247) were obtained from the American Type Culture Collect (ATTC, Manassas, VA). Briefly, cells were grown in RPMI 1640 supplemented with 10% heat inactivated fetal bovine serum (Invitrogen, Carlsbad, CA) and 1% Penicillin/Streptomycin/L-Glutamine at 37° C., 5% CO2, and 95% humidity. Cells were expanded until reaching 70-95% confluency at which point they were subcultured or harvested for assay use. Cells were seeded in 12-well culture plate at five hundred thousand cells per well in 1 mL complete growth medium and incubated overnight at 37° C., 5% CO2, and 95% humidity. The next day each well was replaced with 1 mL Earle's Balanced Salt Solution (EBSS, Invitrogen, Carlsbad, CA) supplemented with 10% Dialyzed Fetal Bovine Serum, 5.5 mM Glucose, 1% Penicillin/Streptomycin and 1% Vitamin solution (thermo #11120052). A serial dilution of test compound was dispensed into well. Plates were incubated for 4 h at 37° C., 5% CO2, and 95% humidity. At the end of the incubation, cells were washed with PBS supplemented with 1× Halt protease inhibitor, 1× Halt phosphatase inhibitor, 1× Sigma phosphatase inhibitor cocktail 2 and 1×EDTA and then lysed with M-PER Mammalian Protein Extraction Reagent supplemented with 3× of the inhibitor mix as described above. Cell lysates were sonicated with water bath sonicator (Qsonica, Newtown, CT) and supernatants were boiled with SDS buffer and reducing agent. Western blot was performed on each lysate to quantify phospho-GCN2 (Thr899), total GCN2, ATF4 and beta-Actin. Membranes were imaged with LI-COR Odyssey CLx Imaging System (LI-COR, Lincoln, NE). Data were analyzed using GraphPad Prism software (GraphPad, San Diego, CA) to calculate IC50 values.
In general terms: A western blot detects proteins with antibodies after separation by electrophoresis.

Assay [5] relates to ATF4 in HCT116 colorectal cancer cells. Description: HCT116 amino acid starved (-AA) ATF4 assay (Western blot). The assay is classed as cell-based. To be noted: Homo sapiens, HCT-116, 4 h. As to the method: as §1
The test system of assay [6] is ATF4 in CCRF-CEM leukemia cells (PERK). Description: CCRF-CEM TG ATF4 ELISA, phenotypic assay for cellular inhibition of PERK preactivated by thapsigargin. Type of assay: cell-based. To be noted: Homo sapiens; Thapsigargin (1 μM) stimulated CCRF-CEM cells. As to the method: CCRF-CEM leukemia cells (catalog #CCL-116) were obtained from the American Type Culture Collection (ATTC, Manassas, VA). Briefly, cells were grown in RPMI-1640 medium supplemented with 10% heat-inactivated fetal bovine serum (Invitrogen, Carlsbad, CA) and 1% Penicillin/Streptomycin/L-Glutamine at 37° C., 5% CO2, and 95% humidity. Cells were expanded until reaching one million cells per mL at which time they were subcultured or harvested for assay use. One million five hundred thousand cells per well in 1 mL complete growth medium were dispensed into 12-well plates and incubated overnight. A serial dilution of test compound was added and cells were incubated at 37° C., 5% CO2, and 95% for three hours, then 1 μM thapsigargin was added and cells were incubated for an additional hour at 37° C., 5% CO2, and 95%. Cells were lysed then ATF4 levels were measured using an ELISA assay (Proteintech, Rosemont, IL). Absorbance was measured at 450 nm and 544 nM using a Synergy2 or equivalent reader (Biotek, Winooski VT). Data was analyzed using PRISM software (Graphpad, San Diego, CA) to calculate IC50 values.
On the technique in general: An ELISA detects its analyte on a solid surface through an enzyme-linked reagent.

GCN2 kinase, sequence (Q9P2K8 whole entry): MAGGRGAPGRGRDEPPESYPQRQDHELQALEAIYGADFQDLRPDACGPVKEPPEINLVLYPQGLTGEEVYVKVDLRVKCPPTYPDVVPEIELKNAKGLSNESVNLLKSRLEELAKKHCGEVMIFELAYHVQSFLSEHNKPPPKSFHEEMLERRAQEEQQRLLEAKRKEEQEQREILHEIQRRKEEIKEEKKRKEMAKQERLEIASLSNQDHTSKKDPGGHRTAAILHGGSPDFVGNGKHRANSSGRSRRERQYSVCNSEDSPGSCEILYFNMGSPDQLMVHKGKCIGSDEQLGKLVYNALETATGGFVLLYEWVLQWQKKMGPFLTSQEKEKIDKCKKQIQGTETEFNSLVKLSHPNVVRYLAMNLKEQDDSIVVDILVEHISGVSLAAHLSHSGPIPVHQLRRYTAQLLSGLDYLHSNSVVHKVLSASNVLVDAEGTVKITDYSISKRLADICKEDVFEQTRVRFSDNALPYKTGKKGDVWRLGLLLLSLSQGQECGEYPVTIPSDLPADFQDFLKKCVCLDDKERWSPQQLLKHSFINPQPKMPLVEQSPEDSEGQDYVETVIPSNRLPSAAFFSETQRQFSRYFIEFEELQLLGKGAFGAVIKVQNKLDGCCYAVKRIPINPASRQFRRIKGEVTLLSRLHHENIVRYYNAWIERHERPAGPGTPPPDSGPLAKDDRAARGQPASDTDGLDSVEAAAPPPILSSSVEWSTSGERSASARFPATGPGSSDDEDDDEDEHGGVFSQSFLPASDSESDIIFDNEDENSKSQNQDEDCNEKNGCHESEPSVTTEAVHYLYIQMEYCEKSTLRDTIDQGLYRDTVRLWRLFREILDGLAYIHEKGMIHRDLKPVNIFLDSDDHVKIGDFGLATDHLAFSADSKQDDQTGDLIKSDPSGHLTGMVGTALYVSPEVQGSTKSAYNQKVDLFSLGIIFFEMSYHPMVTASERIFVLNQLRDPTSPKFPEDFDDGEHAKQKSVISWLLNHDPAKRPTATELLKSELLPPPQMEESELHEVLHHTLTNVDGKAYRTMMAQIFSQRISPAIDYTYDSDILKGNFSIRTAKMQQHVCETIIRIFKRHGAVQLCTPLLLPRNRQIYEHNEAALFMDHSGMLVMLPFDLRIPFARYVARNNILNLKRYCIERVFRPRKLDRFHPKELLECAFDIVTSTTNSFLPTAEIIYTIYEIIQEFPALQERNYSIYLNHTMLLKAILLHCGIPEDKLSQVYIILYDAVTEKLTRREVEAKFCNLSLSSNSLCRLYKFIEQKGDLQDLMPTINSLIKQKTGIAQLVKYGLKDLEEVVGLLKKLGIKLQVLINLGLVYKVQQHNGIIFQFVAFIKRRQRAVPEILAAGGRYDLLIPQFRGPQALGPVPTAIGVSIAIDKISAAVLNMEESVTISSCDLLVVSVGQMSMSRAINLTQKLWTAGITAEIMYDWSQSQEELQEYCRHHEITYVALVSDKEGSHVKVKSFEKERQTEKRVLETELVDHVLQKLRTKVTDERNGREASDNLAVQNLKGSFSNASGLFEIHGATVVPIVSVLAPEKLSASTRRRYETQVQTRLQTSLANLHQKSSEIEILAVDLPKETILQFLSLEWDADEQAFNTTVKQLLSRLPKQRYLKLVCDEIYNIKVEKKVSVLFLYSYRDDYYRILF
PERK kinase, sequence (Q9NZJ5 other isoform, or with tags, fused parts or gaps): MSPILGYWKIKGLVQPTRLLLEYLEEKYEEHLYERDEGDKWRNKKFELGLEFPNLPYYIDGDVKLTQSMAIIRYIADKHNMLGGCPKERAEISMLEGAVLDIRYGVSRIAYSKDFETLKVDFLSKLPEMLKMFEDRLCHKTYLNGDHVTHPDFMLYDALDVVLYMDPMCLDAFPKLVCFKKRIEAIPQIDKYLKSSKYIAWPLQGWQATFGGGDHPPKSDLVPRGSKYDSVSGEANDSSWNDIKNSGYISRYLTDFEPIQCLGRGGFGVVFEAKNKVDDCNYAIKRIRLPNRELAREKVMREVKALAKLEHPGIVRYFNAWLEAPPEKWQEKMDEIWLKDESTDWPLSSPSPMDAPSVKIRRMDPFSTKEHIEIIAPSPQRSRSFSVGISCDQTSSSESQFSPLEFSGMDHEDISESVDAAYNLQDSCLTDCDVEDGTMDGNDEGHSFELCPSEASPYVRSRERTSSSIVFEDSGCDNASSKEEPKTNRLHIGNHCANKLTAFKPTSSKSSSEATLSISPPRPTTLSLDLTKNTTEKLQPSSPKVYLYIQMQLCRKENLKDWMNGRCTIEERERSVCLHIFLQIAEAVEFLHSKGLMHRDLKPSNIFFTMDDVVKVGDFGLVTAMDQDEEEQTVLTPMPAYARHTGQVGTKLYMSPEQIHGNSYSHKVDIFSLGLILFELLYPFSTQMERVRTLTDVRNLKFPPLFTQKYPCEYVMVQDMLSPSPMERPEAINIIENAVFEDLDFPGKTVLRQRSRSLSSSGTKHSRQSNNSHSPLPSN

With `CNc1cc2nc(C)c(-c3ccc(F)c(NS(=O)(=O)c4cc(Cl)cc(CO)c4Cl)c3)cc2cn1` [Example 19], the IC50 in assay [1] was at most 100 nM; in assay [2], at most 100 nM; in assay [3], 100 to 500 nM; in assay [4] it was at most 100 nM; in assay [5], at most 100 nM; in assay [6], 1000 to 10000 nM.

Regarding `CNc1cc2nc(C)c(-c3cc(NS(=O)(=O)c4cc(Cl)cc(CO)c4Cl)c(F)cc3F)cc2cn1` [Example 22], the IC50 was at most 100 nM in assay [1]; at most 100 nM in assay [2]; at most 100 nM in assay [3]; at most 100 nM in assay [4]; at most 100 nM in assay [5]; 1000 to 10000 nM in assay [6].

Consider `CNc1cc2nc(C)c(-c3cc(F)cc(NS(=O)(=O)c4cc(Cl)cnc4OC)c3)cc2cn1` [Example 23], for which the IC50 in assay [1] was at most 100 nM; in assay [2] it was at most 100 nM; in assay [3], 100 to 500 nM; in assay [4], at most 100 nM; in assay [5], at most 100 nM; in assay [6] it was 1000 to 10000 nM.

`CNc1ncc2cc(-c3cc(NS(=O)(=O)c4cc(Cl)cnc4OC)cc(F)c3C)c(C)nc2n1` [Example 26]: the IC50 was at most 100 nM in assay [1]; at most 100 nM in assay [2]; at most 100 nM in assay [3]; at most 100 nM in assay [4]; at most 100 nM in assay [5]; 1000 to 10000 nM in assay [6].

For the compound `CNc1ncc2cc(-c3c(F)ccc(NS(=O)(=O)c4cc(Cl)cnc4OC)c3F)c(C)nc2n1` [Example 27], the IC50 in assay [1] was at most 100 nM; in assay [2], at most 100 nM; in assay [3], at most 100 nM; in assay [4] it was at most 100 nM; in assay [5], at most 100 nM; in assay [6] it was 1000 to 10000 nM.

With `CNc1ncc2cc(-c3cc(NS(=O)(=O)c4cc(Cl)cnc4OC)ccc3C)cnc2n1` [Example 30], the IC50 in assay [1] was at most 100 nM; in assay [2], 100 to 500 nM; in assay [3], at most 100 nM; in assay [4], at most 100 nM; in assay [5] it was at most 100 nM; in assay [6] it was 1000 to 10000 nM.

As to `COc1ncc(Cl)cc1S(=O)(=O)Nc1cccc(-c2ccc3nc(N)ncc3c2)c1F` [Example 33], the IC50 was at most 100 nM in assay [1]; at most 100 nM in assay [2]; 100 to 500 nM in assay [3]; at most 100 nM in assay [4]; at most 100 nM in assay [5]; 1000 to 10000 nM in assay [6].

Regarding `COc1ncc(Cl)cc1S(=O)(=O)Nc1cccc(-c2ccc3nc(NC(C)=O)ncc3c2)c1F` [Example 35], the IC50 in assay [1] is at most 100 nM; in assay [2] it was 100 to 500 nM; in assay [3], at most 100 nM; in assay [4], at most 100 nM; in assay [5] it was at most 100 nM; in assay [6], 1000 to 10000 nM.

As for `CNc1ncc2cc(-c3cccc(NS(=O)(=O)c4cc(Cl)cnc4OC)c3F)ccc2n1` [Example 36], the IC50 in assay [1] is at most 100 nM; in assay [2], at most 100 nM; in assay [3] it was at most 100 nM; in assay [4] it was at most 100 nM; in assay [5], at most 100 nM; in assay [6], 1000 to 10000 nM.

Regarding `CNc1ncc2cc(-c3cc(NS(=O)(=O)c4cc(Cl)cnc4OC)ccc3F)c(C)nc2n1` [Example 38], the IC50 in assay [1] is at most 100 nM; in assay [2], 100 to 500 nM; in assay [3], 100 to 500 nM; in assay [4] it was at most 100 nM; in assay [5] it was 100 to 500 nM; in assay [6] it was 1000 to 10000 nM.

Take `CNc1ncc2cc(-c3cc(NS(=O)(=O)c4cc(Cl)cnc4OC)ccc3F)c(NC)nc2n1` [Example 39]: the IC50 in assay [1] is at most 100 nM; in assay [2], 100 to 500 nM; in assay [3] it was 100 to 500 nM; in assay [4], at most 100 nM; in assay [5], 100 to 500 nM; in assay [6], 1000 to 10000 nM.

For `CNc1cc2nc(C)c(-c3cc(NS(=O)(=O)c4cc(Cl)cnc4OC)ccc3F)cc2cn1` [Example 44], the IC50 in assay [1] was at most 100 nM; in assay [2], at most 100 nM; in assay [3] it was at most 100 nM; in assay [4], at most 100 nM; in assay [5] it was at most 100 nM; in assay [6] it was 1000 to 10000 nM.
